Publication PMC11589570, “Critical assessment of LC3/GABARAP ligands used for degrader development and ligandability of LC3/GABARAP binding pockets” (Nature Communications, 2024)
Several values for one entry are separate records, joined by “and”; a condition that tells them apart may be missing. Equal values may be shown once.

How the values were obtained:
[1] = target: GABARAPL1 (Homo sapiens, UniProt Q9H0R8); assay: FP assay with Cy5-labelled p62 LIR tracer (protein titration and tracer displacement); format: binding; details: for normalized FP signal, p62 LIR tracer displacement: GABARAPL1; for compound titration GABARAPL1 (displacement curve, FP signal): two replicate columns per compound; for FP tracer displacement curve signal (compound titration): duplicate values
[2] = target: LC3C (Homo sapiens, UniProt Q9BXW4); assay: as above; format: binding; details: for normalized FP signal, p62 LIR tracer displacement: LC3C, listed as AN2; for compound titration LC3C (displacement curve, FP signal): two replicate columns per compound
[3] = tested on: U2OS cells; assay: Cell growth assay (IncuCyte confluence over 72 h); format: cell-based; set-up: key to U2OS cell growth: % of well area covered by cells (confluence)
Method in brief: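 U2OS cells were grown in DMEM with 10% FBS for 24 h before treatment. Confluence was then tracked by IncuCyte phase imaging over 72 h and expressed as % of well area covered by cells. Each point is the average of three wells.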

[4] = target: GABARAPL2 (Homo sapiens, UniProt P60520); assay: FP assay with Cy5-labelled p62 LIR tracer (protein titration and tracer displacement); details: GABARAPL2
[5] = target: GABARAP (Homo sapiens, UniProt O95166); assay: as above; format: binding; details: for normalized FP signal, p62 LIR tracer displacement: GABARAP; for compound titration GABARAP (displacement curve, FP signal): two replicate columns per compound
[6] = log10 concentration [M] -3.82391, listed as AN2
[7] = log10 concentration [M] -4.1549, listed as AN2
[8] = log10 concentration [M] -4.60206, listed as AN2
[9] = log10 concentration [M] -5, listed as AN2
[10] = log10 concentration [M] -5.30103, listed as AN2
[11] = log10 concentration [M] -5.69897
[12] = log10 concentration [M] -6.22185, listed as AN2
[13] = log10 concentration [M] -6.69897, listed as AN2
[14] = log10 concentration [M] -7.30103, listed as AN2
[15] = log10 concentration [M] -7.79588, listed as AN2
[16] = log10 concentration [M] -8.08092, listed as AN2
[17] = log10 concentration [M] -3.82391
[18] = log10 concentration [M] -4.1549
[19] = log10 concentration [M] -4.60206
[20] = log10 concentration [M] -5.30103
[21] = log10 concentration [M] -6.22185
[22] = log10 concentration [M] -6.69897
[23] = log10 concentration [M] -7.30103
[24] = log10 concentration [M] -7.79588
[25] = log10 concentration [M] -8.08092
[26] = log10 concentration [M] -5.69897, listed as AN2

Chain of LC3C (Q9BXW4 1-126): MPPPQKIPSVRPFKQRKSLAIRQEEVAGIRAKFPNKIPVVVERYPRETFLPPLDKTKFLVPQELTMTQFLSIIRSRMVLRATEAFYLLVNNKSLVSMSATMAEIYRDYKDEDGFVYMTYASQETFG
Chain of GABARAP (O95166 1-116): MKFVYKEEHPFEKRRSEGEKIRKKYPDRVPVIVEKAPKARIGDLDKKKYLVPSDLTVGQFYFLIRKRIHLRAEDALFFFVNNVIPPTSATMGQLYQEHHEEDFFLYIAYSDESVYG
Chain of GABARAPL1 (Q9H0R8 whole entry): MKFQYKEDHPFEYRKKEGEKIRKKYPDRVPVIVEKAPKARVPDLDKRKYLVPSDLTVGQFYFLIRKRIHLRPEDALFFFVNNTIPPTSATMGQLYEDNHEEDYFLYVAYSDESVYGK
Chain of GABARAPL2 (P60520 whole entry): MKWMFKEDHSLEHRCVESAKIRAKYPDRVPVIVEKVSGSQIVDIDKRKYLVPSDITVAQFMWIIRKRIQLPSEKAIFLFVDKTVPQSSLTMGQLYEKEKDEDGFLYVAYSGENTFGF

In the case of `O=c1cc(-c2ccccc2)c2c(O)cc(O)cc2o1` [compound 2], the “normalized FP signal, p62 LIR tracer displacement” value (“normalized FP signal” below) [1, 6] was 90.5714 and 94.4286, the “normalized FP signal” value [1, 7] was 97.5714 and 96.8571 and the “normalized FP signal” value [1, 8] was 97.1429 and 99. For the same compound, the “normalized FP signal” value [1, 9] was 102.429 and 102.286, the “normalized FP signal” value [1, 10] was 100.429 and 101.143 and the “normalized FP signal” value [1, 11] was 94.4286. The “normalized FP signal” value [1, 12] was 98.5714 and 100.714, the “normalized FP signal” value [1, 13] was 98.7143 and 100.143 and the “normalized FP signal” value [1, 14] was 102 and 99.5714. The “normalized FP signal” value [1, 15] was 98.1429 and 99.4286, the “normalized FP signal” value [1, 16] was 98.8571 and 103.429 and the “compound titration GABARAPL1 (displacement curve, FP signal)” value (from here on “compound titration GABARAPL1”) [1, 17] was 90.5714 and 94.4286. The “compound titration GABARAPL1” value [1, 18] was 97.5714 and 96.8571, the “compound titration GABARAPL1” value [1, 19] was 97.1429 and 99 and the “compound titration GABARAPL1” value ([1]; log10 concentration [M] -5) was 102.429 and 102.286. The “FP tracer displacement curve signal (compound titration)” value (“FP tracer displacement curve signal” below) [1, 11] was 94.4286, the “FP tracer displacement curve signal” value [1, 12] was 98.5714 and 100.714 and the “FP tracer displacement curve signal” value [1, 13] was 98.7143 and 100.143. The “FP tracer displacement curve signal” value [1, 14] was 102 and 99.5714, the “FP tracer displacement curve signal” value [1, 15] was 98.1429 and 99.4286 and the “FP tracer displacement curve signal” value [1, 16] was 98.8571 and 103.429. The “normalized FP signal” value [2, 17] was 84.2 and 87, the “normalized FP signal” value [2, 18] was 90.8 and 97 and the “normalized FP signal” value [2, 19] was 92.6 and 96.6. For the same compound, the “normalized FP signal” value ([2]; log10 concentration [M] -5) was 91.6 and 99.8, the “normalized FP signal” value [2, 20] was 95.6 and 98.4 and the “normalized FP signal” value [2, 11] was 90.8 and 90.6. For the same compound, the “normalized FP signal” value [2, 21] was 97.2 and 95.2, the “normalized FP signal” value [2, 22] was 99.8 and 97.8 and the “normalized FP signal” value [2, 23] was 98 and 96.2. The “normalized FP signal” value [2, 24] was 91.6 and 93.8, the “normalized FP signal” value [2, 25] was 99 and 100.4 and the “compound titration LC3C (displacement curve, FP signal)” value (shortened to “compound titration LC3C”) [2, 17] was 84.2 and 87. For the same compound, the “compound titration LC3C” value [2, 18] was 90.8 and 97, the “compound titration LC3C” value [2, 19] was 92.6 and 96.6 and the “compound titration LC3C” value ([2]; log10 concentration [M] -5) was 91.6 and 99.8. The “compound titration LC3C” value [2, 20] was 95.6 and 98.4, the “compound titration LC3C” value [2, 11] was 90.8 and 90.6 and the “compound titration LC3C” value [2, 21] was 97.2 and 95.2. The “compound titration LC3C” value [2, 22] was 99.8 and 97.8, the “compound titration LC3C” value [2, 23] was 98 and 96.2 and the “compound titration LC3C” value [2, 24] was 91.6 and 93.8. For the same compound, the “compound titration LC3C” value [2, 25] was 99 and 100.4, the U2OS cell growth ([3]; 100 nM, time 0 h, listed as AN2) was 19.1869 and 23.0588 and 16.4621 and the U2OS cell growth ([3]; 100 nM, time 2 h, listed as AN2) was 26.3735 and 32.6169 and 19.3997. The U2OS cell growth ([3]; 100 nM, time 4 h, listed as AN2) was 24.7952 and 30.3994 and 22.748, the U2OS cell growth ([3]; 100 nM, time 6 h, listed as AN2) was 35.0609 and 34.7921 and 28.0047 and the U2OS cell growth ([3]; 500 nM, time 0 h, listed as AN2) was 31.1146 and 31.1409 and 25.529. For the same compound, the U2OS cell growth ([3]; 500 nM, time 2 h, listed as AN2) was 37.2793 and 37.1141 and 29.374, the U2OS cell growth ([3]; 500 nM, time 4 h, listed as AN2) was 35.0603 and 34.3575 and 27.3746 and the U2OS cell growth ([3]; 500 nM, time 6 h, listed as AN2) was 41.7549 and 43.2861 and 37.4758. For the same compound, the U2OS cell growth ([3]; 500 nM, time 10 h) was 32.7403, the U2OS cell growth ([3]; 1 uM, time 0 h, listed as AN2) was 36.01 and 37.7334 and 44.0066 and the U2OS cell growth ([3]; 1 uM, time 2 h, listed as AN2) was 41.2565 and 41.9214 and 49.8222. For the same compound, the U2OS cell growth ([3]; 1 uM, time 4 h, listed as AN2) was 42.1175 and 41.7454 and 46.9501, the U2OS cell growth ([3]; 1 uM, time 6 h, listed as AN2) was 43.4595 and 43.9324 and 52.0735 and the U2OS cell growth ([3]; 1 uM, time 8 h, listed as AN2) was 40.5517 and 44.5898 and 47.4794. The U2OS cell growth ([3]; 1 uM, time 10 h, listed as AN2) was 50.4894 and 50.7087 and 57.5735, the U2OS cell growth ([3]; 1 uM, time 12 h, listed as AN2) was 52.169 and the U2OS cell growth ([3]; 3 uM, time 0 h, listed as AN2) was 52.9397 and 44.5639 and 41.1773. The U2OS cell growth ([3]; 3 uM, time 2 h, listed as AN2) was 56.1844 and 48.7409 and 42.4981, the U2OS cell growth ([3]; 3 uM, time 4 h, listed as AN2) was 62.7365 and 55.2773 and 40.1715 and the U2OS cell growth ([3]; 3 uM, time 6 h, listed as AN2) was 59.0724 and 50.9181 and 40.9833. The U2OS cell growth ([3]; 3 uM, time 8 h, listed as AN2) was 54.8708 and 50.2365 and 43.1088, the U2OS cell growth ([3]; 3 uM, time 10 h, listed as AN2) was 58.4454 and 57.5785 and 49.1427 and the U2OS cell growth ([3]; 3 uM, time 12 h, listed as AN2) was 58.133 and 56.9126. For the same compound, the U2OS cell growth ([3]; 5 uM, time 0 h, listed as AN2) was 43.5311 and 39.437 and 42.1256, the U2OS cell growth ([3]; 5 uM, time 2 h, listed as AN2) was 49.0024 and 44.0014 and 45.1119 and the U2OS cell growth ([3]; 5 uM, time 4 h, listed as AN2) was 52.676 and 42.1033 and 45.9331. The U2OS cell growth ([3]; 5 uM, time 6 h, listed as AN2) was 55.9501 and 52.2867 and 48.2418, the U2OS cell growth ([3]; 5 uM, time 8 h, listed as AN2) was 48.351 and 54.4267 and 50.4706 and the U2OS cell growth ([3]; 5 uM, time 10 h, listed as AN2) was 60.2478 and 59.3897 and 54.3527. For the same compound, the U2OS cell growth ([3]; 10 uM, time 0 h, listed as AN2) was 38.4245 and 29.6214 and 35.113, the U2OS cell growth ([3]; 10 uM, time 2 h, listed as AN2) was 42.0042 and 29.7485 and 38.264 and the U2OS cell growth ([3]; 10 uM, time 4 h, listed as AN2) was 45.9814 and 34.6443 and 44.264. For the same compound, the U2OS cell growth ([3]; 10 uM, time 6 h, listed as AN2) was 49.3993 and 33.9992 and 45.6677, the U2OS cell growth ([3]; 10 uM, time 8 h, listed as AN2) was 46.5429 and 32.9506 and 41.2472 and the U2OS cell growth ([3]; 10 uM, time 10 h, listed as AN2) was 49.5589 and 37.0749 and 46.636. For the same compound, the “normalized FP signal” value [4, 6] was 88.4 and 85.2, the “normalized FP signal” value [4, 7] was 94.4 and 106.4 and the “normalized FP signal” value [4, 19] was 106. The “normalized FP signal” value [4, 8] was 104.4, the “normalized FP signal” value [4, 9] was 98 and 106.4 and the “normalized FP signal” value [4, 10] was 104 and 108.8. The “normalized FP signal” value [4, 26] was 92.8 and 98.4, the “normalized FP signal” value [4, 12] was 104 and 94.4 and the “normalized FP signal” value [4, 22] was 100. For the same compound, the “normalized FP signal” value [4, 13] was 104.4, the “normalized FP signal” value [4, 23] was 116.4 and the “normalized FP signal” value [4, 14] was 100.8. For the same compound, the “normalized FP signal” value [4, 15] was 103.2 and 104, the “normalized FP signal” value [4, 25] was 105.2 and the “normalized FP signal” value [4, 16] was 104.4. The “normalized FP signal” value [5, 6] was 92.5862 and 91.2069, the “normalized FP signal” value [5, 7] was 93.9655 and 97.069 and the “normalized FP signal” value [5, 8] was 97.069 and 101.207. The “normalized FP signal” value [5, 9] was 96.5517 and 105.172, the “normalized FP signal” value [5, 10] was 96.8966 and 99.8276 and the “normalized FP signal” value [5, 26] was 95.5172 and 91.0345. For the same compound, the “normalized FP signal” value [5, 12] was 96.2069 and 97.7586, the “normalized FP signal” value [5, 13] was 98.1034 and 96.7241 and the “normalized FP signal” value [5, 23] was 99.8276. The “normalized FP signal” value [5, 15] was 98.1034 and 97.931, the “normalized FP signal” value [5, 25] was 97.5862 and the “normalized FP signal” value [5, 16] was 104.655. For the same compound, the “compound titration GABARAP (displacement curve, FP signal)” value [5, 17] was 92.5862 and 91.2069, the “compound titration GABARAP (displacement curve, FP signal)” value [5, 18] was 93.9655 and 97.069 and the “compound titration GABARAP (displacement curve, FP signal)” value [5, 19] was 97.069 and 101.207. For the same compound, the “compound titration GABARAP (displacement curve, FP signal)” value ([5]; log10 concentration [M] -5) was 96.5517 and 105.172, the “compound titration GABARAP (displacement curve, FP signal)” value [5, 20] was 96.8966 and 99.8276 and the “compound titration GABARAP (displacement curve, FP signal)” value [5, 11] was 95.5172 and 91.0345. For the same compound, the “compound titration GABARAP (displacement curve, FP signal)” value [5, 21] was 96.2069 and 97.7586, the “compound titration GABARAP (displacement curve, FP signal)” value [5, 22] was 98.1034 and 96.7241 and the “compound titration GABARAP (displacement curve, FP signal)” value [5, 23] was 99.8276. For the same compound, the “compound titration GABARAP (displacement curve, FP signal)” value [5, 24] was 98.1034 and 97.931 and the “compound titration GABARAP (displacement curve, FP signal)” value [5, 25] was 97.5862 and 104.655.
